Patent US12030896B2, “PIKfyve inhibitors” (Mayo Foundation for Medical Education and Research, priority 2018, dated 2024)
Read-outs that look alike come from different tables or passages of the source.

Assay: Pharmacokinetic study of Example 1 in mouse (IV, IP, PO)
Type: in vivo, Male C57BL/6 Mouse
Details: male, C57BL/6, mouse, plasma; for AUC(0-inf): read-out: AUC0-inf; for Cmax: read-out: Cmax; for MRT inf: read-out: MRT0-inf; for MRT last: read-out: MRT0-last; for Tmax: read-out: Tmax; for concentration at 0.25 h: 0.250 h; for concentration at 0.5 h: 0.500 h; for C0: read-out: C0; for Vd: read-out: Vdss; for bioavailability: calculated using AUC0-inf or AUC0-last with nominal dose
Method: Species: Male C57BL/6 Mouse, fasted.
PK/PD testing of the compound was performed in mice, after IP, IV, or oral administration.

[1] = ip, 30 mg/kg, IP 30 mg/kg, individual mice M4-M6
[2] = ip, 30 mg/kg, IP 30 mg/kg, mean
[3] = iv, 5 mg/kg, IV 5 mg/kg, individual mice M1-M3
[4] = po, 30 mg/kg, PO 30 mg/kg, individual mice M7-M9
[5] = po, 30 mg/kg, PO 30 mg/kg, mean

## Cc1ccc(Nc2nc(N/N=C/c3c[nH]c4ccccc34)nc(N3CCOCC3)n2)cc1 [Example 1, (E)-4-(2-((1H-indol-3-yl)methylene)hydrazinyl)-6-morpholino-N-(p-tolyl)-1,3,5-triazin-2-amine]
[1]
  concentration at 6 h: 0.0978 µg/mL
  concentration at 24 h: 0.035 µg/mL
  AUC(0-t): 2.52 µg·h/mL
  AUC(0-inf): 3.06 µg·h/mL
  Cmax: 0.443 µg/mL
  MRT inf: 13 h
  MRT last: 7.2 h
  Tmax: 1 h
[2]
  concentration at 6 h: 0.105 µg/mL
  concentration at 24 h: 0.0366 µg/mL
  AUC(0-t): 2.85 µg·h/mL
  AUC(0-inf): 3.39 µg·h/mL
  Cmax: 0.534 µg/mL
  MRT inf: 12 h
  MRT last: 6.91 h
  Tmax: 1.33 h
ip, 30 mg/kg, IP 30 mg/kg, individual mice M4-M6, read-out: T1/2 (converted)
  half-life: 10.9 h
ip, 30 mg/kg, IP 30 mg/kg, mean, read-out: T1/2 (converted)
  half-life: 10.1 h
ip, 30 mg/kg, IP, single 30 mg/kg dose, read-out: half life (converted)
  half-life: 10.1 h
[3]
  concentration at 5 min: 1.3 µg/mL
  concentration at 0.25 h: 1.14 µg/mL
  concentration at 0.5 h: 0.832 µg/mL
  concentration at 1 h: 0.529 µg/mL
  concentration at 2 h: 0.176 µg/mL
  concentration at 4 h: 0.0174 µg/mL
  concentration at 6 h: 0.00513 µg/mL
  AUC(0-t): 1.37 µg·h/mL
  clearance: 3.63 L/h/kg
  AUC(0-inf): 1.38 µg·h/mL
  C0: 1.39 µg/mL
  MRT inf: 0.959 h
  MRT last: 0.936 h
  Vd: 3.48 L/kg
iv, 5 mg/kg, IV 5 mg/kg, mean
  concentration at 5 min: 1.63 µg/mL
  concentration at 0.25 h: 1.31 µg/mL
  concentration at 0.5 h: 1.01 µg/mL
  concentration at 1 h: 0.599 µg/mL
  concentration at 2 h: 0.183 µg/mL
  concentration at 4 h: 0.0168 µg/mL
  concentration at 6 h: 0.0042 µg/mL
  AUC(0-t): 1.58 µg·h/mL
  clearance: 3.2 L/h/kg
  AUC(0-inf): 1.58 µg·h/mL
  C0: 1.82 µg/mL
  MRT inf: 0.899 h
  MRT last: 0.882 h
  Vd: 2.9 L/kg
iv, 5 mg/kg, IV 5 mg/kg, individual mice M1-M3, read-out: T1/2 (converted)
  half-life: 0.71 h
iv, 5 mg/kg, IV 5 mg/kg, mean, read-out: T1/2 (converted)
  half-life: 0.667 h
[4]
  concentration at 0.25 h: 0.0527 µg/mL
  concentration at 0.5 h: 0.167 µg/mL
  concentration at 6 h: 0.011 µg/mL
  AUC(0-inf): 0.312 µg·h/mL
  Cmax: 0.167 µg/mL
  MRT inf: 2.1 h
  MRT last: 1.69 h
  Tmax: 0.5 h
[5]
  concentration at 0.25 h: 0.0591 µg/mL
  concentration at 0.5 h: 0.122 µg/mL
  concentration at 1 h: 0.092 µg/mL
  concentration at 2 h: 0.0305 µg/mL
  concentration at 4 h: 0.00749 µg/mL
  concentration at 6 h: 0.01 µg/mL
  AUC(0-t): 0.188 µg·h/mL
  AUC(0-inf): 0.211 µg·h/mL
  Cmax: 0.122 µg/mL
  MRT inf: 2.4 h
  MRT last: 1.61 h
  Tmax: 0.5 h
po, 30 mg/kg, PO 30 mg/kg, individual mice M7-M9, read-out: T1/2 (converted)
  half-life: 1.31 h
po, 30 mg/kg, PO 30 mg/kg, mean, read-out: T1/2 (converted)
  half-life: 1.54 h
IP 30 mg/kg
  bioavailability: 35.7%
PO 30 mg/kg
  bioavailability: 2.22%
